# Legend:
# Assay type in all cases: biochemical
# [1] = biological target: T1, recombinant rabbit GSK-3β protein (Oryctolagus cuniculus, UniProt G1T8E2); assay: Glycogen Synthase Kinase-3 Assay; conditions: PPI-2 substrate, 33P-ATP, 90 minutes at 30° C.
# T1 construct: purchased New England Biolabs
# Procedure: Compounds were tested for the ability to inhibit recombinant rabbit GSK-3β protein using the following protocol. The test compound was added to a reaction mixture containing Protein phosphatase inhibitor-2 (PPI-2) (Calbiochem) (45 ng), rabbit GSK-3β protein (New England Biolabs) (0.75 units) and ^33P-ATP (1 μCi) in 50 mM Tris-HCl (pH 8.0), 10 mM MgCl2, 0.1% BSA, 1 mM DTT and 100 μM Sodium Vanadate. The mixture was reacted for 90 minutes at 30° C. to allow phosphorylation of the PPI-2 protein and then the protein in the reaction was precipitated using 10% TCA. The precipitated protein was collected on filter plates (MultiScreen-DV/Millipore), which were subsequently washed. Finally, the radioactivity was quantified using a TopCount Scintillation Counter (Packard).
# [2] = biological target: PKC β-II (Homo sapiens, UniProt P05771); assay: Protein Kinase C Histone-Based Assay, β-II isoform; conditions: histone III substrate, 30 μM ATP, 10 min at 30° C.; read-out: PKC Activity (IC50 μM, Histone Based Assay) Beta II
# Procedure: (§1) Compounds were evaluated for PKC selectivity using histone III as the substrate. […] The reaction was incubated for 10 min at 30° C. Reactions were terminated by TCA precipitation and spotting on Whatman P81 filters. Filters were washed in 75 mM phosphoric acid and the radioactivity quantified by liquid scintillation counting.
# [3] = biological target: PKC α (Homo sapiens, UniProt P17252); assay: Protein Kinase C Histone-Based Assay, α isoform; conditions: histone III substrate, 30 μM ATP, 10 min at 30° C.; read-out: PKC Activity (IC50 μM, Histone Based Assay) Alpha
# Procedure: as §1
# [4] = biological target: PKC γ (Homo sapiens, UniProt P05129); assay: Protein Kinase C Histone-Based Assay, γ isoform; conditions: histone III substrate, 30 μM ATP, 10 min at 30° C.; read-out: PKC Activity (IC50 μM, Histone Based Assay) Gamma
# Procedure: as §1
# T1 sequence (G1T8E2 1-432): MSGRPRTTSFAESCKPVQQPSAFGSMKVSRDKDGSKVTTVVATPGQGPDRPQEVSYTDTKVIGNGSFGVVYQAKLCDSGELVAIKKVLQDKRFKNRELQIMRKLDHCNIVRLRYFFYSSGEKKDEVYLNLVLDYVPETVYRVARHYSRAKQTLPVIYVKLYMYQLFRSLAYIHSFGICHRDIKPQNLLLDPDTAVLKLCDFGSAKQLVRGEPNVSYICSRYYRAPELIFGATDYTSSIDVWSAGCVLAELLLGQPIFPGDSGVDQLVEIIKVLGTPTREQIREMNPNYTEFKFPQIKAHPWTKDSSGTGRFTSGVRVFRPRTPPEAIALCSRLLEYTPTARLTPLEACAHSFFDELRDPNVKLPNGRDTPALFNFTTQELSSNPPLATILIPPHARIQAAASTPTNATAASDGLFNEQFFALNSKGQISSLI
# Sequence of PKC β-II (P05771 1-673 isoform P05771-2): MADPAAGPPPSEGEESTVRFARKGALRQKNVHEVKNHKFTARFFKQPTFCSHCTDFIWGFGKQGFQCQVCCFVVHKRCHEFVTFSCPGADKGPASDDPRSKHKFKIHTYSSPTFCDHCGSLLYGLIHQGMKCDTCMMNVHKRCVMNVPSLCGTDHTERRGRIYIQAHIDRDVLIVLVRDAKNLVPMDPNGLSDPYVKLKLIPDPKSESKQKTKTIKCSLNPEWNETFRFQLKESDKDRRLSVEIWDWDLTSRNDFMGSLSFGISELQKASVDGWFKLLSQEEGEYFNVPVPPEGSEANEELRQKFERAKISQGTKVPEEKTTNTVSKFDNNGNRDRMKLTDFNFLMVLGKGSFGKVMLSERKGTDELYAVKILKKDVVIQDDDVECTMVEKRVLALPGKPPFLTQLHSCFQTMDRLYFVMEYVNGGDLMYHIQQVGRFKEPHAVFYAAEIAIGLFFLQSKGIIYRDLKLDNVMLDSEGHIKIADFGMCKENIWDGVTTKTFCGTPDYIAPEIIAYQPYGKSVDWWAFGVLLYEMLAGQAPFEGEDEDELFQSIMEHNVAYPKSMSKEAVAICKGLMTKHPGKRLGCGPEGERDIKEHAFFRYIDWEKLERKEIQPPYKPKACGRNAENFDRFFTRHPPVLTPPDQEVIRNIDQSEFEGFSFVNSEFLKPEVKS
molecule,measurement,setting,value
"CCn1cc(C2=C(c3nn(CCCN(C)C)c4ccccc34)C(=O)NC2=O)c2cccc(Cl)c21 [Compound 95, 3-(7-chloro-1-ethyl-1H-indol-3-yl)-4-[1-[3-(dimethylamino)propyl]-1H-indazol-3-yl]-1H-pyrrole-2,5-dione]",IC50,[1],0.06 µM
"CCn1cc(C2=C(c3nn(CCCN(C)C)c4ccccc34)C(=O)NC2=O)c2ccc(Cl)cc21 [Compound 90, 3-(6-chloro-1-ethyl-1H-indol-3-yl)-4-[1-[3-(dimethylamino)propyl]-1H-indazol-3-yl]-1H-pyrrole-2,5-dione]",IC50,[1],0.096 µM
"3-(1-ethyl-1H-indol-3-yl)-4-[1-[3-(4-morpholinyl)propyl]-1H-indazol-3-yl]-1H-pyrrole-2,5-dione [Compound 69]",IC50,[2],0.014 µM
same,IC50,[3],0.25 µM
same,IC50,[1],0.018 µM
same,IC50,[4],0.55 µM
"CCn1nc(C2=C(c3cn(CCCN4CCOCC4)c4ccccc34)C(=O)NC2=O)c2cc(Cl)ccc21 [Compound 86, 3-(5-chloro-1-ethyl-1H-indazol-3-yl)-4-[1-[3-(4-morpholinyl)propyl]-1H-indol-3-yl]-1H-pyrrole-2,5-dione]",IC50,[1],0.13 µM
"C=Cn1cc(C2=C(c3nn(CC(O)CN(C)C)c4ccccc34)C(=O)NC2=O)c2ccccc21 (centres unmarked) [Compound 1, 3-[1-[3-(dimethylamino)-2-hydroxypropyl]-1H-indazol-3-yl]-4-(1-ethenyl-1H-indol-3-yl)-1H-pyrrole-2,5-dione]",IC50,[2],0.014 µM
same,IC50,[3],0.052 µM
same,IC50,[1],0.09 µM
same,IC50,[4],0.058 µM
"CC(=O)OCCCn1nc(C2=C(c3cn(C)c4ccc(Cl)cc34)C(=O)NC2=O)c2ccccc21 [Compound 76, 3-[1-[3-(acetyloxy)propyl]-1H-indazol-3-yl]-4-(5-chloro-1-methyl-1H-indol-3-yl)-1H-pyrrole-2,5-dione]",IC50,[1],0.085 µM
"C=Cn1cc(C2=C(c3nn(CCCN(C)C)c4ccccc34)C(=O)NC2=O)c2cc(Cl)ccc21 [Compound 6, 3-(5-chloro-1-ethenyl-1H-indol-3-yl)-4-[1-[3-(dimethylamino)propyl]-1H-indazol-3-yl]-1H-pyrrole-2,5-dione]",IC50,[2],0.013 µM
same,IC50,[3],0.105 µM
same,IC50,[1],0.048 µM
same,IC50,[4],0.129 µM
"CN(C)CCCn1nc(C2=C(c3cn(-c4ccncc4)c4ccccc34)C(=O)NC2=O)c2ccccc21 [Compound 32, 3-[1-[3-(dimethylamino)propyl]-1H-indazol-3-yl]-4-[1-(4-pyridinyl)-1H-indol-3-yl]-1H-pyrrole-2,5-dione]",IC50,[1],0.51 µM
"CN1CCN(CCCn2nc(C3=C(c4cn(C)c5ccc(Cl)cc45)C(=O)NC3=O)c3ccccc32)CC1 [Compound 77, 3-(5-chloro-1-methyl-1H-indol-3-yl)-4-[1-[3-(4-methyl-1-piperazinyl)propyl]-1H-indazol-3-yl]-1H-pyrrole-2,5-dione]",IC50,[2],0.046 µM
same,IC50,[3],0.354 µM
same,IC50,[1],0.043 µM
same,IC50,[4],0.89 µM
"CNCCCn1nc(C2=C(c3cn(C)c4ccc(Cl)cc34)C(=O)NC2=O)c2ccccc21 [Compound 80, 3-(5-chloro-1-methyl-1H-indol-3-yl)-4-[1-[3-(methylamino)propyl]-1H-indazol-3-yl]-1H-pyrrole-2,5-dione]",IC50,[2],0.018 µM
same,IC50,[3],0.328 µM
same,IC50,[1],0.051 µM
same,IC50,[4],0.512 µM
"C=Cn1cc(C2=C(c3nn(CC(O)CN(C)C)c4ccc(Cl)cc34)C(=O)NC2=O)c2ccccc21 (centres unmarked) [Compound 4, 3-[5-chloro-1-[3-(dimethylamino)-2-hydroxypropyl]-1H-indazol-3-yl]-4-(1-ethenyl-1H-indol-3-yl)-1H-pyrrole-2,5-dione]",IC50,[1],0.27 µM
"CN(C)CCCn1nc(C2=C(c3cn(C)c4ccc(Cl)cc34)C(=O)NC2=O)c2ccccc21 [Compound 43, 3-(5-chloro-1-methyl-1H-indol-3-yl)-4-[1-[3-(dimethylamino)propyl]-1H-indazol-3-yl]-1H-pyrrole-2,5-dione]",IC50,[1],0.034 µM
"CCn1cc(C2=C(c3nn(CCCN(C)C)c4ccccc34)C(=O)NC2=O)c2cc(C#N)ccc21 [Compound 98, 3-[4-[1-[3-(dimethylamino)propyl]-1H-indazol-3-yl]-2,5-dihydro-2,5-dioxo-1H-pyrrol-3-yl]-1-ethyl-1H-indole-5-carbonitrile]",IC50,[1],0.015 µM
"O=C1NC(=O)C(c2cn(-c3cccnc3)c3ccccc23)=C1c1[nH]nc2ccccc12 [Compound 118, 3-(1H-indazol-3-yl)-4-[1-(3-pyridinyl)-1H-indol-3-yl]-1H-pyrrole-2,5-dione]",IC50,[1],0.2 µM
"CN(C)CCCn1nc(C2=C(c3cn(-c4ccccc4)c4ccc(Cl)cc34)C(=O)NC2=O)c2ccccc21 [Compound 48, 3-(5-chloro-1-phenyl-1H-indol-3-yl)-4-[1-[3-(dimethylamino)propyl]-1H-indazol-3-yl]-1H-pyrrole-2,5-dione]",IC50,[1],0.09 µM
"O=C1NC(=O)C(c2nn(CCCO)c3ccccc23)=C1c1cn(-c2cncc3ccccc23)c2ccccc12 [Compound 105, 3-[1-(3-hydroxypropyl)-1H-indazol-3-yl]-4-[1-(4-isoquinolinyl)-1H-indol-3-yl]-1H-pyrrole-2,5-dione]",IC50,[1],0.073 µM
"O=C1NC(=O)C(c2nn(CCCO)c3ccccc23)=C1c1cn(-c2cnc3ccccc3c2)c2ccccc12 [Compound 107, 3-[1-[3-hydroxypropyl]-1H-indazol-3-yl]-4-[1-(3-quinolinyl)-1H-indol-3-yl]-1H-pyrrole-2,5-dione]",IC50,[2],0.009 µM
same,IC50,[3],0.098 µM
same,IC50,[1],0.82 µM
same,IC50,[4],0.018 µM
"O=C1NC(=O)C(c2nn(CCCN3CCOCC3)c3ccccc23)=C1c1cn(-c2cccnc2)c2ccccc12 [Compound 68, 3-[1-[3-(4-morpholinyl)propyl]-1H-indazol-3-yl]-4-[1-(3-pyridinyl)-1H-indol-3-yl]-1H-pyrrole-2,5-dione]",IC50,[2],0.011 µM
same,IC50,[3],0.217 µM
same,IC50,[1],0.096 µM
same,IC50,[4],0.426 µM
"O=C1NC(=O)C(c2nn(CCO)c3ccccc23)=C1c1cn(-c2cccnc2)c2ccccc12 [Compound 110, 3-[1-(2-hydroxyethyl)-1H-indazol-3-yl]-4-[1-(3-pyridinyl)-1H-indol-3-yl]-1H-pyrrole-2,5-dione]",IC50,[1],0.075 µM
"O=CCCn1nc(C2=C(c3cn(-c4cccnc4)c4ccccc34)C(=O)NC2=O)c2ccccc21 [Compound 112, 1H-indazole-1-propanal, 3-[2,5-dihydro-2,5-dioxo-4-[1-(3-pyridinyl)-1H-indol-3-yl]-1H-pyrrol-3-yl]-1H-pyrrole-2,5-dione]",IC50,[1],0.115 µM
"CC(C)(C)OC(=O)NCCCn1nc(C2=C(c3cn(-c4cccnc4)c4ccccc34)C(=O)NC2=O)c2ccccc21 [Compound 115, [3-[3-[2,5-dihydro-2,5-dioxo-4-[1-(3-pyridinyl)-1H-indol-3-yl]-1H-pyrrol-3-yl]-1H-indazol-1-yl]propyl]-carbamic acid 1,1-dimethylethyl ester]",IC50,[1],0.055 µM
"O=C1NC(=O)C(c2nn(CCCCO)c3ccccc23)=C1c1cn(-c2cccnc2)c2ccccc12 [Compound 111, 3-[1-(4-hydroxybutyl)-1H-indazol-3-yl]-4-[1-(3-pyridinyl)-1H-indol-3-yl]-1H-pyrrole-2,5-dione]",IC50,[1],0.04 µM
"O=C1NC(=O)C(c2nn(CCOCCO)c3ccccc23)=C1c1cn(-c2cccnc2)c2ccccc12 [Compound 106, 3-[1-[2-(2-hydroxyethoxy)ethyl]-1H-indazol-3-yl]-4-[1-(3-pyridinyl)-1H-indol-3-yl]-1H-pyrrole-2,5-dione]",IC50,[1],0.033 µM
"CN(CCO)CCCn1nc(C2=C(c3cn(C)c4ccc(Cl)cc34)C(=O)NC2=O)c2ccccc21 [Compound 79, 3-(5-chloro-1-methyl-1H-indol-3-yl)-4-[1-[3-[(2-hydroxyethyl)methylamino]propyl]-1H-indazol-3-yl]-1H-pyrrole-2,5-dione]",IC50,[2],0.007 µM
same,IC50,[3],0.065 µM
same,IC50,[1],0.014 µM
same,IC50,[4],0.074 µM
"CN(C)CCCn1nc(C2=C(c3cn(-c4cccs4)c4ccc(Cl)cc34)C(=O)NC2=O)c2ccccc21 [Compound 33, 3-[5-chloro-1-(2-thienyl)-1H-indol-3-yl]-4-[1-[3-(dimethylamino)propyl]-1H-indazol-3-yl]-1H-pyrrole-2,5-dione]",IC50,[1],0.07 µM
"COCCCn1nc(C2=C(c3cn(-c4cccnc4)c4ccccc34)C(=O)NC2=O)c2ccccc21 [Compound 117, 3-[1-(3-methoxypropyl)-1H-indazol-3-yl]-4-[1-(3-pyridinyl)-1H-indol-3-yl]-1H-pyrrole-2,5-dione]",IC50,[2],0.034 µM
same,IC50,[1],0.07 µM
"O=C1NC(=O)C(c2nn(CCCO)c3ccccc23)=C1c1cn(-c2ccccn2)c2ccccc12 [Compound 102, 3-[1-(3-hydroxypropyl)-1H-indazol-3-yl]-4-[1-(2-pyridinyl)-1H-indol-3-yl]-1H-pyrrole-2,5-dione]",IC50,[1],0.21 µM
"Cn1cc(C2=C(c3nn(CCCO)c4ccccc34)C(=O)NC2=O)c2cc(Cl)ccc21 [Compound 74, 3-(5-chloro-1-methyl-1H-indol-3-yl)-4-[1-(3-hydroxypropyl)-1H-indazol-3-yl]-1H-pyrrole-2,5-dione]",IC50,[1],0.014 µM

# Source: US7329657B2, “Indazolyl-substituted pyrroline compounds as kinase inhibitors” (Ortho-McNeil Pharmaceutical, Inc., priority 2000, dated 2008)
